The test system of experiment [1] is 6-OHDA-treated Neuro-2a cells. Description: 6-OHDA-induced neurotoxicity model, cell viability test (MTT). It counts as cell-based, murine. To be noted: compounds at 10, 1, 0.1 µM; 6-OHDA 100 µM.
In experiment [2] the test system is PQ-treated Neuro-2a cells. Description: ROS analysis in PQ-treated cells (H2DCF-DA). It counts as cell-based, murine. To be noted: PQ 1 mM. As for the experimental part:
We previously studied the effect of stilbens 9, 10, 11, and 13 on cell viability and ROS level in PQ-treated Neuro-2a cells. Here, we evaluated the neuroprotective potential against the toxic effect of PQ of stilbene 1, flavonoid 6 and isoflavonoids 2–5, 7, 12 (Figure 7a–d).
Figure 7 The effect of polyphenolic compounds isolated from M. amurensis heartwood on cell viability (a–c) and ROS levels (d) in Neuro-2a cells treated with PQ (1 mM). Polyphenolic compounds isolated from M. amurensis heartwood were used at concentrations 10, 1, 0.1 μM. The data are presented as means ± SEM of three independent replicates. (*), (**), and (***) indicate, respectively, p < 0.05, p < 0.005, and p < 0.001 versus PQ-treated cells.
After 24 h of adhesion, Neuro-2a cells (5 × 10^4 cells/mL) were incubated with polyphenolic compounds at concentrations of 0.1, 1, and 10 µM for 1 h. Then, 120 µM of 6-OHDA or 1 mM of PQ were added to each well, and cells were incubated for 1 h. To study the ROS formation, 20 µL of 2,7-dichlorodihydrofluorescein diacetate solution (H2DCF-DA, Sigma-Aldrich, St. Louis, MO, USA) were added to each well, so that the final concentration was 10 µM. Then, the microplate was incubated for 30 min at 37 °C.

A further experiment deals with HSV-1. Further details: method as in PMID 36985562. As to conditions: ref [22], cited from earlier work; for Simultaneous Treatment SI: ratio of CC50 to IC50; for Simultaneous Treatment IC50 / IC50: virus and compound added to cells simultaneously, CPE assay; for IC50: read-out: Simultaneous Treatment IC50.

On to `Oc1ccc(/C=C/c2cc(O)cc(O)c2)cc1` [Compound 1, resveratrol], for which the “effect on viability of 6-OHDA-treated Neuro-2a cells (in words)” value in experiment [1] is reported as “did not cause any increase in the viability”.

As for `O=C1C[C@@H](c2ccc(O)cc2)Oc2cc(O)ccc21` [Compound 6, liquiritigenin], in experiment [2], the “effect on ROS level in PQ-treated Neuro-2a cells (in words)” value is “effectively reduced the ROS level”.

As for `Oc1cc(O)cc(/C=C/c2ccc3c(c2)O[C@H](c2cc(O)cc(O)c2)[C@@H](c2ccc(O)c(O)c2)O3)c1` [Compound 9, maackin], in the experiment with HSV-1, the “Simultaneous Treatment SI” value is listed as 15.3 ± 1.9; the “Simultaneous Treatment IC50” value is reported as 17.6 ± 2.3 µg/mL; the IC50 (as a rule, the point on the concentration scale where inhibition reaches its midpoint) is 36.2 ± 4.7 µM. Further, in experiment [1], the “effect on viability of 6-OHDA-treated Neuro-2a cells (in words)” value is on record as “did not show significant activity”.

On to `Oc1ccc(/C=C/c2cc(O)cc3c2[C@H](c2cc(O)cc(O)c2)[C@@H](c2ccc(O)c(O)c2)O3)cc1` [Compound 13, scirpusin A], for which, in the experiment on HSV-1, the “Simultaneous Treatment SI” value is 14.4 ± 1.7, the “Simultaneous Treatment IC50” value is 13.8 ± 1.6 µg/mL and the IC50 was 29.4 ± 3.4 µM.

The values are drawn from publication PMC11050087, “Polyphenols from Maackia amurensis Heartwood Protect Neuronal Cells from Oxidative Stress and Prevent Herpetic Infection” (International Journal of Molecular Sciences, 2024).
